Laboratory results reported in patent US20220195066A1, “ANTI-CEA IMMUNOCONJUGATES, AND USES THEREOF” (BOLT BIOTHERAPEUTICS, INC., priority 2020, published 2022).

Tests used:
human TLR7 = target: T1, human TLR7 (Homo sapiens, UniProt Q9NYK1); assay: HEK Reporter Assay, HEK293 NFKB reporter cells expressing human TLR7; assay type: cell-based; settings: read-out: HEK293 hTLR7 EC50
T1 construct: host or cells: HEK293 NF-kB reporter cells
T1 sequence (Q9NYK1 27-1049): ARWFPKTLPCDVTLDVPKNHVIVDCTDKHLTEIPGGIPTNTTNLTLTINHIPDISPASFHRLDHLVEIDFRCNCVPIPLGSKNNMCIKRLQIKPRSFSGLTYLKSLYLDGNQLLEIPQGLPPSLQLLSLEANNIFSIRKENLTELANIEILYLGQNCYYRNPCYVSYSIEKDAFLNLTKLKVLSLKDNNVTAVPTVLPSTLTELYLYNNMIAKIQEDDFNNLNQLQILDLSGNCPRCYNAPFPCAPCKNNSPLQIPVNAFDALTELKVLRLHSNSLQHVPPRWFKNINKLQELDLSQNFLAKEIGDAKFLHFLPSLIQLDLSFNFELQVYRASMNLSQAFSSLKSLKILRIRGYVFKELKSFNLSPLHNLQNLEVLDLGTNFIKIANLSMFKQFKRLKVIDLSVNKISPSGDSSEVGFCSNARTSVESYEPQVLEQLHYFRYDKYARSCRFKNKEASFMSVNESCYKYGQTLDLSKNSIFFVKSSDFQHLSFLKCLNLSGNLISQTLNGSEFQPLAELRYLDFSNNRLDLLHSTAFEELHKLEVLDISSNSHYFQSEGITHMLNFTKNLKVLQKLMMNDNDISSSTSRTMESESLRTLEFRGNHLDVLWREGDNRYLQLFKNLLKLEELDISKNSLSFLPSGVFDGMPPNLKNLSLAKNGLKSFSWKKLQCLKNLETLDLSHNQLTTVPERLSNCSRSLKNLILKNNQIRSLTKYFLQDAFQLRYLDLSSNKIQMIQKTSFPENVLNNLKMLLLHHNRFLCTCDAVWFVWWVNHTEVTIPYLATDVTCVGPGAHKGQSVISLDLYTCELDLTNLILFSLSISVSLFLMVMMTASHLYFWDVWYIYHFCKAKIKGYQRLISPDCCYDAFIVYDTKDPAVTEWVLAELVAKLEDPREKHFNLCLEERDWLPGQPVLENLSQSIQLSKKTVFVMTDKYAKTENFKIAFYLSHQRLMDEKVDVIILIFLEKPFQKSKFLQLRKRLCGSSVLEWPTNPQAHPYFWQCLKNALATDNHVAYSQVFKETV
Procedure: (§1) Each compound was synthesized, purified, and characterized by mass spectrometry and shown to have the mass indicated. Additional experimental procedures are found in the Examples. Activity against Human Embryonic Kidney (HEK) 293 NFKB reporter cells expressing human TLR7 or human TLR8 was measured according to Example 202.
(§2) Human Embryonic Kidney (HEK293) reporter cells expressing human TLR7 or human TLR8 (InvivoGen, San Diego Calif.), were used with vendor protocols for cellular propagation and experimentation. Briefly, cells were grown to 80-85% confluence at 5% CO2 in DMEM supplemented with 10% FBS, ZEOCIN™, and Blasticidin. Cells were then seeded in 96-well flat plates at 4×10^4 cells/well with substrate containing HEK detection medium and immunostimulatory molecules.

human TLR8 = target: T2, human TLR8 (Homo sapiens, UniProt Q9NR97); assay: HEK Reporter Assay, HEK293 NFKB reporter cells expressing human TLR8; assay type: cell-based; settings: read-out: HEK293 hTLR8 EC50
T2 construct: host or cells: HEK293 NF-kB reporter cells
T2 sequence (Q9NR97 27-1041): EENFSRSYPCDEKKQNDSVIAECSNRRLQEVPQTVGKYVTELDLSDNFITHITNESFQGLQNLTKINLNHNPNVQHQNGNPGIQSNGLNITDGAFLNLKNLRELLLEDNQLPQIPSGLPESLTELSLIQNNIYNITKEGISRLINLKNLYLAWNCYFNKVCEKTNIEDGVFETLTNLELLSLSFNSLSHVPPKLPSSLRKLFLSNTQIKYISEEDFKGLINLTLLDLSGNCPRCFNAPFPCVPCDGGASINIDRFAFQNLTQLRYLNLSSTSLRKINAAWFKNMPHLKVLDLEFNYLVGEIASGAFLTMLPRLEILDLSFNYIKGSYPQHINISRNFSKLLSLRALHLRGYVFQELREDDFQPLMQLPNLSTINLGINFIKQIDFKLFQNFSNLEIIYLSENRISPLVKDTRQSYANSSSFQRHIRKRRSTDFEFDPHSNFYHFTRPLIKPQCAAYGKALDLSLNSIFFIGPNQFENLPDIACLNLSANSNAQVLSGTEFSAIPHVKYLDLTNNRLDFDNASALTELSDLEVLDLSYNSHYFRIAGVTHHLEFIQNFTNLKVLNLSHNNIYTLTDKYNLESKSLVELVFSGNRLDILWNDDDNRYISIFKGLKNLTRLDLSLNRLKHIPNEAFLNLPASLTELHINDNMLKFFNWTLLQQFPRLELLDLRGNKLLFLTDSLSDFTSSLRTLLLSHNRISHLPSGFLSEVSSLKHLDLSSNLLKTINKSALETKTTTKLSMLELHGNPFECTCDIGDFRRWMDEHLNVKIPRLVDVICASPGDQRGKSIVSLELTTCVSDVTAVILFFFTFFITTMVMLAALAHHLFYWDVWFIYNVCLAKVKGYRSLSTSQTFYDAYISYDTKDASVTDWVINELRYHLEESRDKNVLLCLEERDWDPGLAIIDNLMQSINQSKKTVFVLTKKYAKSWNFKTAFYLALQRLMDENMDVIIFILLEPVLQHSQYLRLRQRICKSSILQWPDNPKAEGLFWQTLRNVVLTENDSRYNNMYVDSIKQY
Procedure: as §1, §2

SMILES	EC50 (human TLR7)	EC50 (human TLR8)
CCCN(OCC)C(=O)C1=Cc2ccc(-c3cnc(C#N)nc3)cc2N=C(N)C1 [HxBz-1]	2.54 µM	0.163 µM
CCCN(OCC)C(=O)C1=Cc2ccc(-c3cnc(CN)nc3)cc2N=C(N)C1 [HxBz-5, 2-amino-8-[2-(aminomethyl)pyrimidin-5-yl]-N-ethoxy-N-propyl-3H-1-benzazepine-4-carboxamide]	0.525 µM	0.017 µM
CCCN(OCCNC(=O)OC(C)C)C(=O)C1=Cc2ccc(-c3cnc(CN)nc3)cc2N=C(N)C1 [HxBz-27, isopropyl N-[2-[[2-amino-8-[2-(aminomethyl)pyrimidin-5-yl]-3H-1-benzazepine-4-carbonyl]-propyl-amino]oxyethyl]carbamate]	0.026 µM	0.009 µM
CCCN(CCCNC(=O)OC(C)C)C(=O)C1=Cc2ccc(-c3cnc(CN)nc3)cc2N=C(N)C1 [HxBz-29]	0.134 µM	0.296 µM
CCCN(OCCO)C(=O)C1=Cc2ccc(-c3cnc(CN)nc3)cc2N=C(N)C1 [HxBz-22, 2-amino-8-[2-(aminomethyl)pyrimidin-5-yl]-N-(2-hydroxyethoxy)-N-propyl-3H-1-benzazepine-4-carboxamide]	3.92 µM	1.15 µM
CCCN(OCCNC(=O)N1CCOCC1)C(=O)C1=Cc2ccc(-c3cnc(CN)nc3)cc2N=C(N)C1 [HxBz-23]	6.88 µM	6.18 µM
CCCN(OCCNC(=O)NC1CCC1)C(=O)C1=Cc2ccc(-c3cnc(CN)nc3)cc2N=C(N)C1 [HxBz-16, 2-amino-8-[2-(aminomethyl)pyrimidin-5-yl]-N-[2-(cyclobutylcarbamoylamino)ethoxy]-N-propyl-3H-1-benzazepine-4-carboxamide]	4.6 µM	0.399 µM
CCCN(OCCNC(=O)OC1CCC1)C(=O)C1=Cc2ccc(-c3ccc(CN)nc3)cc2N=C(N)C1 [HxBz-47]	0.035 µM	0.012 µM
CCCN(OCc1ccn[nH]1)C(=O)C1=Cc2ccc(-c3cnc(CN)nc3)cc2N=C(N)C1 [HxBz-41, 2-amino-8-[2-(aminomethyl)pyrimidin-5-yl]-N-propyl-N-(1H-pyrazol-5-ylmethoxy)-3H-1-benzazepine-4-carboxamide]	3.93 µM	0.128 µM
CCCN(OCCNC(=O)NCC)C(=O)C1=Cc2ccc(-c3cnc(CN)nc3)cc2N=C(N)C1 [HxBz-28]	3.77 µM	2.93 µM
CCCN(OCCO)C(=O)C1=Cc2ccc(-c3cncc(S(=O)(=O)N4CC(CN)C4)c3)cc2N=C(N)C1 [HxBz-43]		6.16 µM
CCCN(OCCNC(=O)N(C)C)C(=O)C1=Cc2ccc(-c3cnc(CN)nc3)cc2N=C(N)C1 [HxBz-20]	2.94 µM	3.69 µM
CCCN(CCCNC(=O)OC1CCC1)C(=O)C1=Cc2ccc(-c3cncc(CN)c3)cc2N=C(N)C1 [HxBz-40]	0.357 µM	0.755 µM
CCCN(OCC(C)C)C(=O)C1=Cc2ccc(-c3cnc(CN)nc3)cc2N=C(N)C1 [HxBz-31]	0.763 µM	0.358 µM
CCCN(CCCNC(=O)OC1CCC1)C(=O)C1=Cc2ccc(-c3ccc(CN)nc3)cc2N=C(N)C1 [HxBz-38]	0.056 µM	0.153 µM
CCCN(OCC)C(=O)C1=Cc2ccc(-c3cnc(C(=O)OC)nc3)cc2N=C(N)C1 [HxBz-11, methyl 5-(2-amino-4-(ethoxy(propyl)carbamoyl)-3H-benzo[b]azepin-8-yl)pyrimidine-2-carboxylate]	4.07 µM	0.161 µM
CCCN(C(=O)C1=Cc2ccc(-c3cnc(CN)nc3)cc2N=C(N)C1)[C@H]1C[C@H](NC(=O)OC2CCC2)C1 [HxBz-44]		6.35 µM
CCCN(CC1CNC(=O)O1)C(=O)C1=Cc2ccc(-c3cnc(CN)nc3)cc2N=C(N)C1 (centres unmarked) [HxBz-25]		3.16 µM

The remaining molecules from weak to strong by EC50 (human TLR8), led by results:

EC50 (human TLR7)	EC50 (human TLR8)	SMILES
	3.58 µM	CCCN(OCC1COC(=O)N1)C(=O)C1=Cc2ccc(-c3cnc(CN)nc3)cc2N=C(N)C1 (centres unmarked) [HxBz-46]
7.63 µM	2.88 µM	CCCN(CCCNC(=O)OC(C)C)C(=O)C1=Cc2ccc(-c3cncc(S(=O)(=O)N4CC(CN)C4)c3)cc2N=C(N)C1 [HxBz-33]
	2.16 µM	CCCN(OCC)C(=O)C1=Cc2ccc(-c3cnnc(CN)c3)cc2N=C(N)C1 [HxBz-48]
	0.814 µM	CCCN(OCC)C(=O)C1=Cc2ccc(-c3ncc(CN)cn3)cc2N=C(N)C1 [HxBz-10]
8.63 µM	0.397 µM	CCCN(OCC)C(=O)C1=Cc2ccc(-c3cnn(S(=O)(=O)N4CC(CN)C4)c3)cc2N=C(N)C1 [HxBz-9]
0.825 µM	0.325 µM	CCCN(CCCOC(=O)NC1CCC1)C(=O)C1=Cc2ccc(-c3cnc(CN)nc3)cc2N=C(N)C1 [HxBz-45, 3-[[2-amino-8-[2-(aminomethyl)pyrimidin-5-yl]-3H-1-benzazepine-4-carbonyl]-propyl-amino]propyl N-cyclobutylcarbamate]
2.24 µM	0.276 µM	CCCN(OCC)C(=O)C1=Cc2ccc(-c3cccnn3)cc2N=C(N)C1 [HxBz-2]
0.242 µM	0.274 µM	CCCN(CCCNC(=O)OC1CCC1)C(=O)C1=Cc2ccc(-c3cnc(CN)nc3)cc2N=C(N)C1 [HxBz-13, cyclobutyl N-[3-[[2-amino-8-[2-(aminomethyl)pyrimidin-5-yl]-3H-1-benzazepine-4-carbonyl]-propyl-amino]propyl]carbamate]
0.684 µM	0.174 µM	CCCN(OCCNC(=O)OC(C)C)C(=O)C1=Cc2ccc(-c3cncc(S(=O)(=O)N4CC(CN)C4)c3)cc2N=C(N)C1 [HxBz-35]
0.322 µM	0.079 µM	CCCN(OCCNC(=O)OC1CCC1)C(=O)C1=Cc2ccc(-c3cncc(S(=O)(=O)N4CC(CN)C4)c3)cc2N=C(N)C1 [HxBz-34]
1.78 µM	0.065 µM	CCCN(OCC)C(=O)C1=Cc2ccc(-c3cncc(CN)c3)cc2N=C(N)C1 [HxBz-39, 2-amino-8-(5-(aminomethyl)pyridin-3-yl)-N-ethoxy-N-propyl-3H-benzo[b]azepine-4-carboxamide]
0.439 µM	0.054 µM	CCCN(OCC)C(=O)C1=Cc2ccc(-c3ccc(CN)nc3)cc2N=C(N)C1 [HxBz-36, 2-amino-8-[6-(aminomethyl)-3-pyridyl]-N-ethoxy-N-propyl-3H-1-benzazepine-4-carboxamide]
0.562 µM	0.043 µM	CCCN(OCC)C(=O)C1=Cc2ccc(-c3cnc(N4CCNCC4)nc3)cc2N=C(N)C1 [HxBz-3, 2-amino-N-ethoxy-8-(2-piperazin-1-ylpyrimidin-5-yl)-N-propyl-3H-1-benzazepine-4-carboxamide]
